Results: US20230114207A1, “THE COMBINATION OF CYCLIN DEPENDENT KINASE 7 INHIBITOR AND IMMUNOTHERAPY FOR TREATMENT OF CANCER” (Dana-Farber Cancer Institute, Inc., priority 2019, published 2023)

Tests used:
CDK7 = target: T1, CDK7 (Mus musculus, UniProt Q03147); assay: In vivo target engagement by competitive pulldown assay; settings: 10 mg/kg
T1 construct: from tissue
Experimental: Bio-THZ1 pulldown experiments followed by western blotting of enriched proteins was performed as described in Kwiatkowski, et al., Nature, 2014, 511, 616-620. Briefly, cells were treated with YKL-5-124 or DMSO for 6 hr (in vitro) or 72 hr (in vivo). Following treatment, cells were washed twice with cold PBS and then lysed in the following lysis buffer: 50 mM TrisHCI pH 8.0, 150 mM NaCl, 1% NP-40, 5 mM EDTA, 1 mM DTT, and protease/phosphatase cocktails. Following clearance, lysates were treated with biotinylated THZ1 for pulldown overnight at 4° C. Lysates were further incubated at room temperature for 3 hr to increase the efficiency of covalent bond formation. Lysates were then incubated with streptavidin agarose for pulldown for an additional 2-3 hr at 4° C. Agarose beads were washed 5 times with lysis buffer and then boiled in 2×SDS at 95° C. SDS-page resolved precipitated proteins were probed for the indicated proteins.

cGAS-STING pathway = cGAS-STING pathway analysis (western blotting; cGAS knockout RT-qPCR); assay type: cell-based, mouse, human; settings: DMS79, RPP631, cGAS knockout RPP631
Experimental: Cell pellets were collected and then subjected to total RNA extraction using RNeasy Plus Mini Kit (QIAGEN, Cat #74136) according to the manufacturer's instructions, or using TRIzol:Chloroform phase-separation by centrifugation followed by RNA precipitation using isopropanol. The extracted RNA was reversely transcribed into cDNA using the High-Capacity RNA-to-cDNA™ Kit (Thermo Fisher Scientific, Cat #4387406) according to the manufacturer's instructions. The obtained cDNA samples were diluted and used for RT-qPCR. PowerUp™ SYBR™ Green Master Mix (Thermo Fisher Scientific, Cat #A25742) or TaqMan Gene Expression Master Mix (Life Technologies, Cat #4369514). Gene specific primers with sequences listed in Table 3 were used for PCR amplification and detection on the StepOnePlus™ Real-Time PCR System (Thermo Fisher Scientific). RT-qPCR data were normalized to Actb (mouse cells) or GUSB (human cells) and presented as fold changes of gene expression in the test sample compared to the control.
Cells in culture were collected by centrifuging at 1,500 rpm and then washed with ice-cold PBS twice to completely remove residual medium. […] Protein concentrations in lysates were measured by Pierce™ BCA Protein Assay Kit (Thermo Fisher Scientific, Cat #23225) and followed by the addition of SDS loading buffer (6×) and heated at 95° C. for 5 min. […]

RPP631 and GLC16 cells = assay: Immunofluorescence of γH2AX foci and micronuclei; assay type: cell-based, mouse, human
Experimental: Before fixation, cells in PBS were seeded for 30 min on 0.01% Poly-lysine coated coverslip. Cells were then fixed in 4% paraformaldehyde (Diluted the 32% paraformaldehyde in PBS, Electron Microscopy Sciences 15714) for 10 min at room temperature. Cells were washed three times for 5 min with 200 mM glycine containing PBS, followed by permeabilization with 0.3% Triton X-100 in PBS for 15 min. After blocking with 5% bovine serum albumin (BSA) in PBS for 1 hour, cells were incubated with primary antibody (γH2A.X, Cell signaling 9718, 1:200) diluted in a 5% BSA in PBS solution overnight at 4° C. After washing four times with PBS, cells were incubated with Alexa Fluor Plus 555 (Invitrogen A32732, 1: 500) secondary antibody for 1 hour and washed three times with PBS. Cell nuclei were counterstained with DAPI (Biolengend 422801, diluted to 600 nM in PBS) for 5 min. Cells were washed two more times in PBS before mounting with Fluorescence Mounting Medium (Dako, S3023). Images were acquired using Zeiss 880 Laser Scanning Confocal Microscope and were processed by FIJI (NIH). Micronucleus were identified manually by distinct DAPI staining outside the main nucleus.

T1 sequence (Q03147 2-346 limits assumed): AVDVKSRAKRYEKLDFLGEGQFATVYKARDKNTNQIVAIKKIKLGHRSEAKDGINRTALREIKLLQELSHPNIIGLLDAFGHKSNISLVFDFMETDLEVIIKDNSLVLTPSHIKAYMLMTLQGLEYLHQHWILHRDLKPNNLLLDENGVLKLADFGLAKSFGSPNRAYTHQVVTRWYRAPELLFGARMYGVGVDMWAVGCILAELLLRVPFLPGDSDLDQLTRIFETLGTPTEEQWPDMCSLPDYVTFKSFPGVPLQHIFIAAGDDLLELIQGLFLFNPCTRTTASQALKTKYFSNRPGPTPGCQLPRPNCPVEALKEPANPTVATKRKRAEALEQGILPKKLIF
T1 sequence (Q61458 whole entry partner): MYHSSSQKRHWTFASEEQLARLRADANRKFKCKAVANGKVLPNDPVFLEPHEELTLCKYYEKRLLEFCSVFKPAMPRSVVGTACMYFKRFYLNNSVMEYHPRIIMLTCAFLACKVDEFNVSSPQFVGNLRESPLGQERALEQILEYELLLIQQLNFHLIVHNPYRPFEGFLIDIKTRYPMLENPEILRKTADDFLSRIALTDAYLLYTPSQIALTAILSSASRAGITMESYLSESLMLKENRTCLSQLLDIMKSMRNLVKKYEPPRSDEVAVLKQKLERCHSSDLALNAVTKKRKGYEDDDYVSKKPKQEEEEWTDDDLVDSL
T1 sequence (P51949 whole entry partner): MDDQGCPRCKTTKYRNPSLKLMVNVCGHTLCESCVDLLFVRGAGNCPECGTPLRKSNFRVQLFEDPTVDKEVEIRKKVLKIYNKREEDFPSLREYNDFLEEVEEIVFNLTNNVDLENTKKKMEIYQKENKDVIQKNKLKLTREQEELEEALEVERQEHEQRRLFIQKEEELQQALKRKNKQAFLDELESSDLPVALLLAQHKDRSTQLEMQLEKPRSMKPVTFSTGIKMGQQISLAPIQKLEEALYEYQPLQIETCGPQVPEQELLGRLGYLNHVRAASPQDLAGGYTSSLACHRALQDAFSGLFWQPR

C=CC(=O)Nc1ccc(C(=O)Nc2n[nH]c3c2CN(C(=O)N[C@H](CN(C)C)c2ccccc2)C3(C)C)cc1 [YKL-5-124]
target engagement in tumor-bearing mice (CDK7): further confirmed | dependence of the immune stimulatory effect on the cGAS-STING pathway (cGAS-STING pathway): independent of this pathway | percentages of cells containing micronuclei (RPP631 and GLC16 cells; RPP631 and GLC16): considerably increased | γH2AX foci (RPP631 and GLC16 cells; after 48 hr): significant increase
